Drawing on patent US7781591B2, “Substituted 3-cyanopyridines as protein kinase inhibitors” (Wyeth LLC, priority 2006, dated 2010), this text covers IC50 for 27 compounds.

For this assay, the target named is T1, human PKCθ full length enzyme (Homo sapiens, UniProt Q04759).
T1 construct: human PKCθ full length enzyme (Panvera Cat# P2996); purchased Panvera P2996
In words: PKCθ IMAP assay (fluorescence polarization). The format is biochemical. The settings on record: human PKCθ full length enzyme, IMAP; average value; read-out: IC50 PKCθ IMAP. In general terms: Fluorescence polarisation rises when a labelled molecule tumbles more slowly, as on binding a larger partner.

T1 sequence (Q04759 whole entry): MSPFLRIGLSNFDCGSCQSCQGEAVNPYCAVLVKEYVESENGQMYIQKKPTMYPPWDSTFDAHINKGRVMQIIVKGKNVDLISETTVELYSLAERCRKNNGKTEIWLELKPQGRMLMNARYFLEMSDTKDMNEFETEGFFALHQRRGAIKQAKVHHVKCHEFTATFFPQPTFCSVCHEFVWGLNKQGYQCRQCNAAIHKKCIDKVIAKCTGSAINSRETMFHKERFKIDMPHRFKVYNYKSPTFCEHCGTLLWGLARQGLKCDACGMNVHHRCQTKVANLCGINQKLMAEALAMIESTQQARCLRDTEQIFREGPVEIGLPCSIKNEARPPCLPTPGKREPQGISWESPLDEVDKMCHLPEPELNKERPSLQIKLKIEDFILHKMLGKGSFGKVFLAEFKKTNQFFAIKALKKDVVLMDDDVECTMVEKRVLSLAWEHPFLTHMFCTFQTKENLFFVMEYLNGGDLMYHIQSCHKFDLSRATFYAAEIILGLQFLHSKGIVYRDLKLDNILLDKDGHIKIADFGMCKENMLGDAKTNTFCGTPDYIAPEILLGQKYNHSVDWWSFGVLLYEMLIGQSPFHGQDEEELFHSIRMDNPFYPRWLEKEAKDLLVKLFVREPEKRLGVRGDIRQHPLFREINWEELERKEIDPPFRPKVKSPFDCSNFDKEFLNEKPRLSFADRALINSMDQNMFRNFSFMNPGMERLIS

As a reminder, the IC50 is the concentration that inhibits the measured activity by half. With `CN1CCN(Cc2ccc3oc(-c4cncc(C#N)c4Nc4ccc5[nH]ccc5c4)cc3c2)CC1` [Compound 485, 4-(1H-indol-5-ylamino)-5-{5-[(4-methylpiperazin-1-yl)methyl]-1-benzofuran-2-yl}nicotinonitrile], the IC50 amounted to 5 nM.
Regarding `Cc1c(Nc2c(C#N)cncc2-c2ccc(CN3CCN(C4CCCC4)CC3)o2)ccc2[nH]ccc12` [Compound 486, 5-{5-[(4-cyclopentylpiperazin-1-yl)methyl]-2-furyl}-4-[(4-methyl-1H-indol-5-yl)amino]nicotinonitrile], the IC50 came out at 4 nM.
On to `Cc1c(Nc2c(C#N)cncc2-c2ccc(CN3CCS(=O)(=O)CC3)o2)ccc2[nH]ccc12` [Compound 487, 5-{5-[(1,1-dioxidothiomorpholin-4-yl)methyl]-2-furyl}-4-[(4-methyl-1H-indol-5-yl)amino]nicotinonitrile], for which the IC50 came to 16 nM.
As for `COc1ccc(-c2cncc(C#N)c2Nc2cnc3[nH]ccc3c2)cc1OC` [Compound 488, 5-(3,4-dimethoxyphenyl)-4-(1H-pyrrolo[2,3-b]pyridin-5-ylamino)nicotinonitrile], the IC50 was determined as 2020 nM.
Next, `Cc1c(Nc2c(C#N)cncc2-c2ccc(OCCCCCl)cc2)ccc2[nH]ccc12` [Compound 490, 5-[4-(4-chlorobutoxy)phenyl]-4-[(4-methyl-1H-indol-5-yl)amino]nicotinonitrile]: 51 nM.
On to `Cc1c(Nc2c(C#N)cncc2-c2ccc(OCCCCN3CCN(C)CC3)cc2)ccc2[nH]ccc12` [Compound 491, 4-[(4-methyl-1H-indol-5-yl)amino]-5-{4-[4-(4-methylpiperazin-1-yl)butoxy]phenyl}nicotinonitrile], for which the IC50 was determined as 15 nM.
As for `COCCOc1ccc(-c2cncc(C#N)c2Nc2cnc3[nH]ccc3c2Cl)cc1OC` [Compound 492, 4-[(4-chloro-1H-pyrrolo[2,3-b]pyridin-5-yl)amino]-5-[3-methoxy-4-(2-methoxyethoxy)phenyl]nicotinonitrile], the IC50 is 61 nM.
Next, `Cc1cc2[nH]ccc2cc1Nc1c(C#N)cncc1-c1ccc(OCCN2CCN(C)CC2)cc1` [Compound 496, 4-[(6-methyl-1H-indol-5-yl)amino]-5-{4-[2-(4-methylpiperazin-1-yl)ethoxy]phenyl}nicotinonitrile]: 33 nM.
Turning to `Cc1cc2[nH]ccc2cc1Nc1c(C#N)cncc1-c1cc2cc(CN3CCN(C)CC3)ccc2o1` [Compound 497, 4-[(6-methyl-1H-indol-5-yl)amino]-5-{5-[(4-methylpiperazin-1-yl)methyl]-1-benzofuran-2-yl}nicotinonitrile], the IC50 was 7 nM.
Consider `COc1ccc(-c2cncc(C#N)c2Nc2cc(Cl)c3[nH]ccc3c2C)cc1OC` [Compound 498, 4-[(7-chloro-4-methyl-1H-indol-5-yl)amino]-5-(3,4-dimethoxyphenyl)nicotinonitrile], for which the IC50 was determined as 16 nM.
The value for `Cc1cc2[nH]ccc2cc1Nc1c(C#N)cncc1-c1cc2cc(CO)ccc2o1` [Compound 499, 5-[5-(hydroxymethyl)-1-benzofuran-2-yl]-4-[(6-methyl-1H-indol-5-yl)amino]nicotinonitrile] was 3 nM; that for `CCN(CC)Cc1ccc2oc(-c3cncc(C#N)c3Nc3cc4cc[nH]c4cc3C)cc2c1` [Compound 500, 5-{5-[(diethylamino)methyl]-1-benzofuran-2-yl}-4-[(6-methyl-1H-indol-5-yl)amino]nicotinonitrile] was 5 nM.
For the compound `Cc1c(Nc2c(C#N)cncc2-c2cccc(OCCCCCl)c2)ccc2[nH]ccc12` [Compound 501, 5-[3-(4-chlorobutoxy)phenyl]-4-[(4-methyl-1H-indol-5-yl)amino]nicotinonitrile], the IC50 stood at 89 nM.
As to `Cc1c(Nc2c(C#N)cncc2-c2cccc(OCCCCN3CCN(C)CC3)c2)ccc2[nH]ccc12` [Compound 502, 4-[(4-methyl-1H-indol-5-yl)amino]-5-{3-[4-(4-methylpiperazin-1-yl)butoxy]phenyl}nicotinonitrile], the IC50 was 21 nM.
With `Cc1c(Nc2c(C#N)cncc2-c2coc(CN3CCN(C)CC3)c2)ccc2[nH]ccc12` [Compound 503, 4-[(4-methyl-1H-indol-5-yl)amino]-5-{5-[(4-methylpiperazin-1-yl)methyl]-3-furyl}nicotinonitrile], the IC50 was 12 nM.
As for `Cc1cc2[nH]ccc2cc1Nc1c(C#N)cncc1-c1ccc(OCCN2CCCCC2)cc1` [Compound 504, 4-[(6-methyl-1H-indol-5-yl)amino]-5-[4-(2-piperidin-1-ylethoxy)phenyl]nicotinonitrile], the IC50 turned out to be 84 nM.
Take `Cc1cc2[nH]ccc2cc1Nc1c(C#N)cncc1-c1ccc(OCCN2CCC(O)CC2)cc1` [Compound 505, 5-{4-[2-(4-hydroxypiperidin-1-yl)ethoxy]phenyl}-4-[(6-methyl-1H-indol-5-yl)amino]nicotinonitrile]: the IC50 was 76 nM.
Take `Cc1cc2[nH]ccc2cc1Nc1c(C#N)cncc1-c1ccc(OCCN2CCC(N3CCCC3)CC2)cc1` [Compound 506, 4-[(6-methyl-1H-indol-5-yl)amino]-5-{4-[2-(4-pyrrolidin-1-ylpiperidin-1-yl)ethoxy]phenyl}nicotinonitrile]: the IC50 is 83 nM.
As to `Cc1c(Nc2c(C#N)cncc2-c2ccc(N3CCOCC3)nc2)ccc2[nH]ccc12` [Compound 507, 4-[(4-methyl-1H-indol-5-yl)amino]-6′-morpholin-4-yl-3,3′-bipyridine-5-carbonitrile], the IC50 was determined as 30 nM.
Regarding `Cc1c(Nc2c(C#N)cncc2-c2ccc(N3CCCCC3)nc2)ccc2[nH]ccc12` [Compound 508, 4-[(4-methyl-1H-indol-5-yl)amino]-6′-piperidin-1-yl-3,3′-bipyridine-5-carbonitrile], the 50% inhibitory concentration (IC50) was determined as 78 nM.
As for `Cc1c(Nc2c(C#N)cncc2-c2cncnc2)ccc2[nH]ccc12` [Compound 509, 4-[(4-methyl-1H-indol-5-yl)amino]-5-pyrimidin-5-ylnicotinonitrile], the IC50 came out at 261 nM.
Consider `Cc1c(Nc2c(C#N)cncc2-c2cnc(N3CCCCC3)nc2)ccc2[nH]ccc12` [Compound 510, 4-[(4-methyl-1H-indol-5-yl)amino]-5-(2-piperidin-1-ylpyrimidin-5-yl)nicotinonitrile], for which the IC50 turned out to be 300 nM.
As for `Cc1c(Nc2c(C#N)cncc2-c2cnc(N3CCOCC3)nc2)ccc2[nH]ccc12` [Compound 511, 4-[(4-methyl-1H-indol-5-yl)amino]-5-(2-morpholin-4-ylpyrimidin-5-yl)nicotinonitrile], the IC50 came out at 83 nM.
Next, `Cc1c(Nc2c(C#N)cncc2-c2cnc(N3CCCC3)nc2)ccc2[nH]ccc12` [Compound 512, 4-[(4-methyl-1H-indol-5-yl)amino]-5-(2-pyrrolidin-1-ylpyrimidin-5-yl)nicotinonitrile]: 215 nM; `Cc1c(Nc2c(C#N)cncc2-c2cnc(N(C)C)nc2)ccc2[nH]ccc12` [Compound 513, 5-[2-(dimethylamino)pyrimidin-5-yl]-4-[(4-methyl-1H-indol-5-yl)amino]nicotinonitrile]: 125 nM; `Cc1c(Nc2c(C#N)cncc2-c2cc3ccccc3s2)ccc2[nH]ccc12` [Compound 514, 5-(1-benzothien-2-yl)-4-[(4-methyl-1H-indol-5-yl)amino]nicotinonitrile]: 23 nM.
As for `Cc1c(Nc2c(C#N)cncc2-c2csc(C=O)c2)ccc2[nH]ccc12` [Compound 516, 5-(5-formyl-3-thienyl)-4-[(4-methyl-1H-indol-5-yl)amino]nicotinonitrile], the IC50 was determined as 5 nM.
